Laboratory results taken from patent publication US11053242B2, “[9,10-dimethoxy-3-(2-methylpropyl)-1H,2H,3H,4H,6H,7H,11BH-pyrido-[2,1-a]isoquinolin-2-yl]methanol and compounds, compositions and methods relating thereto” (Neurocrine Biosciences, Inc., priority 2015, dated 2021).

Assays:
[1] = target: VMAT2 (human platelet homogenate) (Homo sapiens (Human), UniProt Q05940); assay: Human VMAT2 Ki, slightly modified competition binding procedure (Table 11); settings: 10 nM 3H-dihydrotetrabenazine;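 also: competition binding with 90 min incubation at 25 °C, after which filter-retained radioligand was measured by scintillation counting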
Description: Following incubation at 25° C. for 90 minutes, bound radioligand was collected by rapid filtration onto GF/B glass fiber filters using a Unifilter-96 Harvester (PerkinElmer). Filter plates were pre-treated with 0.1% polyethylenimine and allowed to dry overnight, and following harvesting the filter plates were washed with 800 d VMAT2 binding buffer. Bound radioligand was quantified by scintillation counting using a Topcount NXT (PerkinElmer).

[2] = In vitro human intestinal S9 hydrolysis assay (formation of compound 1-1); settings: human intestinal S9, 1 uM, 37° C., up to 60 minutes

Chain of VMAT2 (human platelet homogenate) (Q05940 whole entry): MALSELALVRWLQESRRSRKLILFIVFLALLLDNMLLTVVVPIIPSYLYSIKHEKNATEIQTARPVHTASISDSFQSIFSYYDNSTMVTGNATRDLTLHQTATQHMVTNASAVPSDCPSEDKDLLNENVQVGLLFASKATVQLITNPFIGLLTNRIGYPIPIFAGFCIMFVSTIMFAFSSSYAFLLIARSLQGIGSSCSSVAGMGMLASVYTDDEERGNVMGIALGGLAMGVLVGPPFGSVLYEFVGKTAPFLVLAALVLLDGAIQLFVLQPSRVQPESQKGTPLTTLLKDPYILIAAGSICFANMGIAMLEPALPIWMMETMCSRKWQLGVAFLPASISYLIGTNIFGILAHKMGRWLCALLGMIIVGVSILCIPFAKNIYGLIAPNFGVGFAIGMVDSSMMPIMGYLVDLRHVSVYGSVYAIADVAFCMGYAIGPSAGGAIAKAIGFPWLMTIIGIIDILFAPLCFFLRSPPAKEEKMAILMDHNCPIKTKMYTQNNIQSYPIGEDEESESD

Compound | Ki [1] | S9 Assay (ability to form compound 1-1) [2]
COc1cc2c(cc1OC)[C@H]1C[C@@H](COC(=O)N(C)C(CC(C)C)C(=O)O)[C@H](CC(C)C)CN1CC2 (stereo partly drawn) [Compound 5-46, 2-[({[(2R,3S,11bR)-9,10-dimethoxy-3-(2-methylpropyl)-1H,2H,3H,4H,6H,7H,11bH-pyrido[2,1-a]isoquinolin-2-yl]methoxy}carbonyl)(methyl)amino]-4-methylpentanoic acid] | > 0.5 µM | ++
COc1cc2c(cc1OC)[C@H]1C[C@@H](COC(=O)NC3CCCCC3C(=O)O)[C@H](CC(C)C)CN1CC2 (stereo partly drawn) [Compound 5-41, 2-[({[(2R,3S,11bR)-9,10-dimethoxy-3-(2-methylpropyl)-1H,2H,3H,4H,6H,7H,11bH-pyrido[2,1-a]isoquinolin-2-yl]methoxy}carbonyl)amino]cyclohexane-1-carboxylic acid] | 0.01 to 0.5 µM | +
COc1cc2c(cc1OC)[C@H]1C[C@@H](COC(=O)CCCN)[C@H](CC(C)C)CN1CC2 [Compound 4-31, [(2R,3S,11bR)-9,10-dimethoxy-3-(2-methylpropyl)-1H,2H,3H,4H,6H,7H,11bH-pyrido[2,1-a]isoquinolin-2-yl]methyl 4-aminobutanoate] | < 0.01 µM | ++
COc1cc2c(cc1OC)[C@H]1C[C@@H](COC(=O)NCCC(=O)O)[C@H](CC(C)C)CN1CC2 [Compound 5-1, 3-[({[(2R,3S,11bR)-9,10-dimethoxy-3-(2-methylpropyl)-1H,2H,3H,4H,6H,7H,11bH-pyrido[2,1-a]isoquinolin-2-yl]methoxy}carbonyl)amino]propanoic acid] | < 0.01 µM | +
COc1cc2c(cc1OC)[C@H]1CC(COC(=O)CC(C)(C)C(=O)O)[C@H](CC(C)C)CN1CC2 (stereo partly drawn) [Compound 3-7, 4-{[(3S,11bR)-9,10-dimethoxy-3-(2-methylpropyl)-1H,2H,3H,4H,6H,7H,11bH-pyrido[2,1-a]isoquinolin-2-yl]methoxy}-2,2-dimethyl-4-oxobutanoic acid] | 0.01 to 0.5 µM | +
COc1cc2c(cc1OC)[C@H]1C[C@@H](COC(=O)N3CC(C)NC(C)C3)[C@H](CC(C)C)CN1CC2 (stereo partly drawn) [Compound 6-11, [(2R,3S,11bR)-9,10-dimethoxy-3-(2-methylpropyl)-1H,2H,3H,4H,6H,7H,11bH-pyrido[2,1-a]isoquinolin-2-yl]methyl 3,5-dimethylpiperazine-1-carboxylate] | < 0.01 µM | +
COc1cc2c(cc1OC)[C@H]1C[C@@H](COC(=O)CC3CCN(C)C3)[C@H](CC(C)C)CN1CC2 (stereo partly drawn) [Compound 2-10, [(2R,3S,11bR)-9,10-dimethoxy-3-(2-methylpropyl)-1H,2H,3H,4H,6H,7H,11bH-pyrido[2,1-a]isoquinolin-2-yl]methyl 2-(1-methylpyrrolidin-3-yl)acetate] | < 0.01 µM | +++
COc1cc2c(cc1OC)[C@H]1C[C@@H](COC(=O)CCC(=O)O)[C@H](CC(C)C)CN1CC2 [Compound 3-13] | 0.01 to 0.5 µM | ++
COc1cc2c(cc1OC)[C@H]1C[C@@H](COC(=O)NCCCC(=O)O)[C@H](CC(C)C)CN1CC2 [Compound 5-3, 4-[({[(2R,3S,11bR)-9,10-dimethoxy-3-(2-methylpropyl)-1H,2H,3H,4H,6H,7H,11bH-pyrido[2,1-a]isoquinolin-2-yl]methoxy}carbonyl)amino]butanoic acid] | > 0.5 µM | +
COc1cc2c(cc1OC)[C@H]1C[C@@H](COC(=O)N3CCN[C@@H](C(=O)O)C3)[C@H](CC(C)C)CN1CC2 [Compound 6-8, (2R)-4-({[(2R,3S,11bR)-9,10-dimethoxy-3-(2-methylpropyl)-1H,2H,3H,4H,6H,7H,11bH-pyrido[2,1-a]isoquinolin-2-yl]methoxy}carbonyl)piperazine-2-carboxylic acid] | 0.01 to 0.5 µM | +
COc1cc2c(cc1OC)[C@H]1C[C@@H](COC(=O)N3CCCC(C(=O)O)C3)[C@H](CC(C)C)CN1CC2 (stereo partly drawn) [Compound 5-14, 1-({[(2R,3S,11bR)-9,10-dimethoxy-3-(2-methylpropyl)-1H,2H,3H,4H,6H,7H,11bH-pyrido[2,1-a]isoquinolin-2-yl]methoxy}carbonyl)piperidine-3-carboxylic acid] | > 0.5 µM | +
COc1cc2c(cc1OC)[C@H]1C[C@@H](COC(=O)NC(C)CC(=O)O)[C@H](CC(C)C)CN1CC2 (stereo partly drawn) [Compound 5-26, 3-[({[(2R,3S,11bR)-9,10-dimethoxy-3-(2-methylpropyl)-1H,2H,3H,4H,6H,7H,11bH-pyrido[2,1-a]isoquinolin-2-yl]methoxy}carbonyl)amino]butanoic acid] | > 0.5 µM | +
COc1cc2c(cc1OC)[C@H]1C[C@@H](COC(=O)CC3(CC(=O)O)CCCC3)[C@H](CC(C)C)CN1CC2 [Compound 3-9] | 0.01 to 0.5 µM | ++
COc1cc2c(cc1OC)[C@H]1C[C@@H](COC(=O)N3CCOC(CN(C)C)C3)[C@H](CC(C)C)CN1CC2 (stereo partly drawn) [Compound 5-4, [(2R,3S,11bR)-9,10-dimethoxy-3-(2-methylpropyl)-1H,2H,3H,4H,6H,7H,11bH-pyrido[2,1-a]isoquinolin-2-yl]methyl 2-[(dimethylamino)methyl]morpholine-4-carboxylate] | < 0.01 µM | +
COc1cc2c(cc1OC)[C@H]1C[C@@H](COC(=O)C(C)(C)C)[C@H](CC(C)C)CN1CC2 [Compound 2-17, [(2R,3S,11bR)-9,10-dimethoxy-3-(2-methylpropyl)-1H,2H,3H,4H,6H,7H,11bH-pyrido[2,1-a]isoquinolin-2-yl]methyl 2,2-dimethylpropanoate] | 0.01 to 0.5 µM | –
COc1cc2c(cc1OC)[C@H]1C[C@@H](COCC(=O)c3ccc(F)cc3)[C@H](CC(C)C)CN1CC2 [Compound 9-3, 2-{[(2R,3S,11bR)-9,l0-dimethoxy-3-(2-methylpropyl)-1H,2H,3H,4H,6H,7H,11bH-pyrido[2,1-a]isoquinolin-2-yl]methoxy}-1-(4-fluorophenyl)ethan-1-one] | > 0.5 µM | –
COCOC[C@@H]1C[C@@H]2c3cc(OC)c(OC)cc3CCN2C[C@H]1CC(C)C [Compound 9-5, (2R,3S,11bR)-9,10-dimethoxy-2-[(methoxymethoxy)methyl]-3-(2-methylpropyl)-1H,2H,3H,4H,6H,7H,11bH-pyrido[2,1-a]isoquinoline] | < 0.01 µM | –

Results, then the compound that gave them:

Ki [1] | S9 Assay (ability to form compound 1-1) [2] | Compound
< 0.01 µM | + | COc1cc2c(cc1OC)[C@H]1C[C@@H](COC(=O)CC3CCNC3)[C@H](CC(C)C)CN1CC2 (stereo partly drawn) [Compound 4-16, [(2R,3S,11bR)-9,10-dimethoxy-3-(2-methylpropyl)-1H,2H,3H,4H,6H,7H,11bH-pyrido[2,1-a]isoquinolin-2-yl]methyl 2-(pyrrolidin-3-yl)acetate]
< 0.01 µM | +++ | COc1cc2c(cc1OC)[C@H]1C[C@@H](COC(=O)C[C@@H]3CCCN3)[C@H](CC(C)C)CN1CC2 [Compound 4-36]
< 0.01 µM | ++ | COc1cc2c(cc1OC)[C@H]1C[C@@H](COC(=O)C3CCNC3)[C@H](CC(C)C)CN1CC2 (stereo partly drawn) [Compound 4-8, [(2R,3S,11bR)-9,10-dimethoxy-3-(2-methylpropyl)-1H,2H,3H,4H,6H,7H,11bH-pyrido[2,1-a]isoquinolin-2-yl]methyl pyrrolidine-3-carboxylate]
< 0.01 µM | + | COc1cc2c(cc1OC)[C@H]1C[C@@H](COC(=O)C3CCNCC3C)[C@H](CC(C)C)CN1CC2 (stereo partly drawn) [Compound 4-15, [(2R,3S,11bR)-9,10-dimethoxy-3-(2-methylpropyl)-1H,2H,3H,4H,6H,7H,11bH-pyrido[2,1-a]isoquinolin-2-yl]methyl 3-methylpiperidine-4-carboxylate]
< 0.01 µM | ++ | COc1cc2c(cc1OC)[C@H]1C[C@@H](COC(=O)N3CCNC[C@@H]3C)[C@H](CC(C)C)CN1CC2 [Compound 6-5, [(2R,3S,11bR)-9,10-dimethoxy-3-(2-methylpropyl)-1H,2H,3H,4H,6H,7H,11bH-pyrido[2,1-a]isoquinolin-2-yl]methyl (2S)-2-methylpiperazine-1-carboxylate]
< 0.01 µM | ++ | COc1cc2c(cc1OC)[C@H]1C[C@@H](COC(=O)CC3CCCNC3)[C@H](CC(C)C)CN1CC2 (stereo partly drawn) [Compound 4-10, [(2R,3S,11bR)-9,10-dimethoxy-3-(2-methylpropyl)-1H,2H,3H,4H,6H,7H,11bH-pyrido[2,1-a]isoquinolin-2-yl]methyl 2-(piperidin-3-yl)acetate]
< 0.01 µM | ++ | COc1cc2c(cc1OC)[C@H]1C[C@@H](COC(=O)[C@H]3CCNC3)[C@H](CC(C)C)CN1CC2 [Compound 4-7, [(2R,3S,11bR)-9,10-dimethoxy-3-(2-methylpropyl)-1H,2H,3H,4H,6H,7H,11bH-pyrido[2,1-a]isoquinolin-2-yl]methyl (3S)-pyrrolidine-3-carboxylate]
< 0.01 µM | + | COc1cc2c(cc1OC)[C@H]1C[C@@H](COC(=O)N3CCN[C@H](C)C3)[C@H](CC(C)C)CN1CC2 [Compound 6-13, [(2R,3S,11bR)-9,10-dimethoxy-3-(2-methylpropyl)-1H,2H,3H,4H,6H,7H,11bH-pyrido[2,1-a]isoquinolin-2-yl]methyl (3R)-3-methylpiperazine-1-carboxylate]
– | + | COc1cc2c(cc1OC)[C@H]1C[C@@H](COC(=O)N3CCNC[C@H]3C)[C@H](CC(C)C)CN1CC2 [Compound 6-3, [(2R,3S,11bR)-9,10-dimethoxy-3-(2-methylpropyl)-1H,2H,3H,4H,6H,7H,11bH-pyrido[2,1-a]isoquinolin-2-yl]methyl (2R)-2-methylpiperazine-1-carboxylate]
< 0.01 µM | – | COc1cc2c(cc1OC)[C@H]1C[C@@H](COC(=O)N3CCNC(=O)C3C)[C@H](CC(C)C)CN1CC2 (stereo partly drawn) [Compound 5-21, [(2R,3S,11bR)-9,10-dimethoxy-3-(2-methylpropyl)-1H,2H,3H,4H,6H,7H,11bH-pyrido[2,1-a]isoquinolin-2-yl]methyl 2-methyl-3-oxopiperazine-1-carboxylate]
